In patent US20090247472A1, “TYPE 1, 4-NAPHTOQUINONE COMPOUNDS, COMPOSITIONS COMPRISING THEM AND USE OF THESE COMPOUNDS AS ANTI-CANCER AGENTS” (FLUOFARMA, priority 2006, published 2009):

Legend:
Format in all cases: cell-based
cells [1] = assay: Sub-G1 apoptosis test (DNA fragmentation, fluorescent DNA intercalator), Example 60; settings: for Activity (sub-Gl): apoptosis, DNA fragmentation by fluorescence; for pro-apoptotic activity (in words): conclusion from the tests of Example 60
Description: The biological tests on activity (Sub-G1) relate to measurement of apoptosis. For this purpose, a fluorescent tracer, a DNA intercalator, makes it possible to display the fragmentation of the DNA. This fragmentation of the DNA results from the induction of the apoptotic phenomenon in the cells. The cells are incubated in the presence of various concentrations of the compounds presented above. The measurement of the apoptosis in the cells is monitored by measuring the fluorescence, thus making it possible to determine the activity of the compounds in […]. The activity tests (sub-G1) on certain compounds are presented below.

cells [2] = assay: Apoptosis (sub-G1) by multiplexed flow cytometry, Example 61
Description: (§1) The activities are measured by multiplexed flow cytometry tests, by coupling the measurement of apoptosis and cell proliferation. The cell proliferation is measured by monitoring the dilution of a specific fluorescent tracer during the cell divisions: • the cells are incubated in the presence of several concentrations of compounds, then • the measurements of apoptosis and cell proliferation are made simultaneously by the flow cytometry technique; specimen dose/response curves for the action of the compounds on apoptosis and on cell proliferation are obtained.

cells [3] = assay: Cell proliferation by multiplexed flow cytometry (dilution of a fluorescent tracer), Example 61
Description: as §1

[4] = conclusion from the tests of Example 61

| Compound | Activity (sub-Gl) (cells [1]) | pro-apoptotic activity (in words) (cells [1]) | Activity (sub-Gl) (cells [2]; apoptosis, multiplexed flow cytometry) | pro-apoptotic activity (in words) (cells [2]; [4]) | Activity (prolif at 24 h) (cells [3]; cell proliferation at 24 h, flow cytometry) | anti-proliferative activity (in words) (cells [3]; [4]) |
| --- | --- | --- | --- | --- | --- | --- |
| CC1=C(CNC(=O)C(N)C(C)O)C(=O)c2ccccc2C1=O [Example 20, 2-methyl-3-(L-threoninyl-aminomethyl)-1,4-naphthoquinone chlorohydrate] | 12.2 µM | pro-apoptotic activity |  |  |  |  |
| CC1=C(CNC(=O)C(N)CO)C(=O)c2ccccc2C1=O.Cl [Example 18, 2-methyl-3-(L-serinyl-aminomethyl)-1,4-naphthoquinone chlorhydrate] | 11.8 µM | pro-apoptotic activity |  |  |  |  |
| CC1=C(CNC(=O)C(N)C(C)C)C(=O)c2ccccc2C1=O.Cl [Example 19, 2-methyl-3-(D-valinyl-aminomethyl)-1,4-naphthoquinone chlorhydrate] | 12 µM | pro-apoptotic activity |  |  |  |  |
| CC1=C(CCNC(=O)CN)C(=O)c2ccccc2C1=O.Cl [Example 26, 2-methyl-3-(glycinyl-aminoethyl)-1,4-naphthoquinone chlorohydrate] |  |  | 11.8 µM | pro-apoptotic | 12.3 µM | anti-proliferative activity |
| CC1=C(CNC(=O)C(C)N)C(=O)c2ccccc2C1=O.Cl [Example 17, 2-methyl-3-(L-alaninyl-aminomethyl)-1,4-naphthoquinone chlorhydrate] | 13.3 µM | pro-apoptotic activity |  |  |  |  |
